What was measured:
[1] = clinical studies; cited from earlier work
[2] = phase III clinical study; cited from earlier work
FXR receptor (FXR受体) = molecular target: T1, FXR receptor (FXR受体) (Homo sapiens, UniProt Q96RI1); details: cited from earlier work
T1 sequence (Q96RI1 1-486): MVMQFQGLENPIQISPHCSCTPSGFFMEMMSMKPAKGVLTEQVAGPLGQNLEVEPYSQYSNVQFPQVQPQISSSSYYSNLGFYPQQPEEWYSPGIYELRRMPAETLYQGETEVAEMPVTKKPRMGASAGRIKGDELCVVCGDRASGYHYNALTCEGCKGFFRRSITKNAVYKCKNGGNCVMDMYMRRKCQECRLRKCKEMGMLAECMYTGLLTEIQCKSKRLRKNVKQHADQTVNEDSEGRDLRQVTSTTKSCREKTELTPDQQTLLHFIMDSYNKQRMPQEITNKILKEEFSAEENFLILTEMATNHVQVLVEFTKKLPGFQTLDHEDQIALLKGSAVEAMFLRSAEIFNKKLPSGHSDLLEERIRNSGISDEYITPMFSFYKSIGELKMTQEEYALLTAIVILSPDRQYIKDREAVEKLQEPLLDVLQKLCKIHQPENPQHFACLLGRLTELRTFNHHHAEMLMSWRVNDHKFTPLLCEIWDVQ

[3] = system: non-alcoholic hepatitis (非酒精性肝炎(NASH)); details: phase IIb study, 72 weeks of treatment; cited from earlier work
[4] = system: non-alcoholic fatty liver disease (非酒精性脂肪性肝病(NAFLD)); details: phase IIa clinical study; cited from earlier work
[5] = system: non-alcoholic fatty liver model mice (非酒精性脂肪肝模型小鼠); assay: Improvement of non-alcoholic fatty liver in NASH model mice (Western diet + CCl4), HE staining of liver; format: in vivo, C57BL/6 mouse; details: 10 mg/kg, gavage, once daily, 4 weeks; compared with obeticholic acid 20 mg/kg

Row | SMILES | side effects [1] | liver fibrosis, histological features of steatohepatitis and liver biochemical indicators [2] | FXR receptor agonist activity compared with the endogenous ligand CDCA (FXR receptor (FXR受体)) | histopathology of NASH [3] | insulin sensitivity [4] | other metabolic effects [4] | ballooning [5] | degree of hepatic steatosis [5] | improvement of non-alcoholic fatty liver [5] | inflammatory infiltration [5]
1 | CC[C@H]1[C@@H](O)[C@@H]2[C@H](CC[C@]3(C)[C@@H]([C@H](C)CCC(=O)O)CC[C@@H]23)[C@@]2(C)CC[C@@H](O)C[C@@H]12 [奥贝胆酸] | 严重的瘙痒、肝毒性、心血管风险等副作用 | 可以改善肝纤维化、脂肪性肝炎的组织学特征以及肝脏的生化指标 | 比内源性配体CDCA活性更高 | 对非酒精性肝炎(NASH)的组织病理学的改进也有益 | 有显著改善 | 有益作用 | – | – | – | –
2 | CC(C)c1onc(-c2ccccc2OC(F)(F)F)c1CN1CCC(COc2ccc(C(=O)O)cc2)CC1 [I-9, 4-(1-(5-异丙基-3-(2-三氟甲氧基苯基)异恶唑-4-甲基)哌啶-4-甲氧基)苯甲酸] | – | – | – | – | – | – | 得到更明显的改善 | 得到更明显的改善 | 明显优于奥贝胆酸 | 得到更明显的改善

Source: CN115504972A, “异恶唑类衍生物、其制备方法及其作为药物的用途” (Guangdong Pharmaceutical University, priority 2021, dated 2022)
